Laboratory results reported in ChEMBL document CHEMBL3822401, “PEGylated Bis-Sulfonamide Carbonic Anhydrase Inhibitors Can Efficiently Control the Growth of Several Carbonic Anhydrase IX-Expressing Carcinomas” (J Med Chem, 2016).
Activity calls are given as the source filed them. The calls are words filed in the database; no cut-off is given here.

Key:
Carbonic anhydrase 9 = Carbonic anhydrase 9 (Homo sapiens, UniProt Q16790)
Description: Inhibition of human recombinant carbonic anhydrase 9 preincubated for 15 mins prior to testing by stopped-flow CO2 hydration assay

HT-29 [1] = test: Cytotoxicity against human HT-29 spheroids expressing carbonic anhydrase 9/12 assessed as cell viability at 1 mM after 24 hrs by WST8 assay; assay type: functional
HT-29 [2] = test: Cytotoxicity against human HT-29 spheroids expressing carbonic anhydrase 9/12 assessed as cell viability at 100 uM after 24 hrs by WST8 assay; assay type: functional
MDA-MB-231 [3] = test: Cytotoxicity against human MDA-MB-231 spheroids expressing carbonic anhydrase 9/12 assessed as cell viability at 1 mM after 24 hrs by WST8 assay; assay type: functional
MDA-MB-231 [4] = test: Cytotoxicity against human MDA-MB-231 spheroids expressing carbonic anhydrase 9/12 assessed as cell viability at 100 uM after 24 hrs by WST8 assay; assay type: functional
SK-OV-3 [5] = test: (§1) Cytotoxicity against human SKOV3 spheroids expressing carbonic anhydrase 9/12 assessed as cell viability at 1 mM after 24 hrs by WST8 assay; assay type: functional
SK-OV-3 [6] = test: (§2) Cytotoxicity against human SKOV3 spheroids expressing carbonic anhydrase 9/12 assessed as cell viability at 100 uM after 24 hrs by WST8 assay; assay type: functional
HT-29 [7] = test: Cytotoxicity against human HT-29 cells expressing carbonic anhydrase 9/12 assessed as cell viability at 1 mM after 24 hrs under normoxic conditions by MTT assay; assay type: functional; conditions: HT-29, 24 h, read-out: Activity
HT-29 [8] = test: Cytotoxicity against human HT-29 cells expressing carbonic anhydrase 9/12 assessed as cell viability at 1 mM after 24 hrs under hypoxic conditions by MTT assay; assay type: functional; conditions: HT-29, 24 h, read-out: Activity
MDA-MB-231 [9] = test: Cytotoxicity against human MDA-MB-231 cells expressing carbonic anhydrase 9/12 assessed as cell viability at 1 mM after 24 hrs under normoxic conditions by MTT assay; assay type: functional; conditions: MDA-MB-231, 24 h, read-out: Activity
MDA-MB-231 [10] = test: Cytotoxicity against human MDA-MB-231 cells expressing carbonic anhydrase 9/12 assessed as cell viability at 1 mM after 24 hrs under hypoxic conditions by MTT assay; assay type: functional; conditions: MDA-MB-231, 24 h, read-out: Activity
[11] = Cytotoxicity against human SKOV3 cells expressing carbonic anhydrase 9/12 assessed as cell viability at 1 mM after 24 hrs under normoxic conditions by MTT assay; assay type: functional; conditions: SK-OV-3, 24 h, read-out: Activity
[12] = Cytotoxicity against human SKOV3 cells expressing carbonic anhydrase 9/12 assessed as cell viability at 1 mM after 24 hrs under hypoxic conditions by MTT assay; assay type: functional; conditions: SK-OV-3, 24 h, read-out: Activity
HT-29 [13] = test: Cytotoxicity against human HT-29 cells expressing carbonic anhydrase 9/12 assessed as cell viability at 100 uM after 24 hrs under normoxic conditions by MTT assay; assay type: functional; conditions: HT-29, 24 h, read-out: Activity
HT-29 [14] = test: Cytotoxicity against human HT-29 cells expressing carbonic anhydrase 9/12 assessed as cell viability at 100 uM after 24 hrs under hypoxic conditions by MTT assay; assay type: functional; conditions: HT-29, 24 h, read-out: Activity
MDA-MB-231 [15] = test: Cytotoxicity against human MDA-MB-231 cells expressing carbonic anhydrase 9/12 assessed as cell viability at 100 uM after 24 hrs under normoxic conditions by MTT assay; assay type: functional; conditions: MDA-MB-231, 24 h, read-out: Activity
MDA-MB-231 [16] = test: Cytotoxicity against human MDA-MB-231 cells expressing carbonic anhydrase 9/12 assessed as cell viability at 100 uM after 24 hrs under hypoxic conditions by MTT assay; assay type: functional; conditions: MDA-MB-231, 24 h, read-out: Activity
[17] = Cytotoxicity against human SKOV3 cells expressing carbonic anhydrase 9/12 assessed as cell viability at 100 uM after 24 hrs under normoxic conditions by MTT assay; assay type: functional; conditions: SK-OV-3, 24 h, read-out: Activity
[18] = Cytotoxicity against human SKOV3 cells expressing carbonic anhydrase 9/12 assessed as cell viability at 100 uM after 24 hrs under hypoxic conditions by MTT assay; assay type: functional; conditions: SK-OV-3, 24 h, read-out: Activity
HT-29 [19] = test: Cytotoxicity against human HT-29 cells expressing carbonic anhydrase 9/12 assessed as cell viability at 10 uM after 24 hrs under normoxic conditions by MTT assay; assay type: functional; conditions: HT-29, 24 h, read-out: Activity
HT-29 [20] = test: Cytotoxicity against human HT-29 cells expressing carbonic anhydrase 9/12 assessed as cell viability at 10 uM after 24 hrs under hypoxic conditions by MTT assay; assay type: functional; conditions: HT-29, 24 h, read-out: Activity
MDA-MB-231 [21] = test: Cytotoxicity against human MDA-MB-231 cells expressing carbonic anhydrase 9/12 assessed as cell viability at 10 uM after 24 hrs under normoxic conditions by MTT assay; assay type: functional; conditions: MDA-MB-231, 24 h, read-out: Activity
MDA-MB-231 [22] = test: Cytotoxicity against human MDA-MB-231 cells expressing carbonic anhydrase 9/12 assessed as cell viability at 10 uM after 24 hrs under hypoxic conditions by MTT assay; assay type: functional; conditions: MDA-MB-231, 24 h, read-out: Activity
[23] = Cytotoxicity against human SKOV3 cells expressing carbonic anhydrase 9/12 assessed as cell viability at 10 uM after 24 hrs under normoxic conditions by MTT assay; assay type: functional; conditions: SK-OV-3, 24 h, read-out: Activity
[24] = Cytotoxicity against human SKOV3 cells expressing carbonic anhydrase 9/12 assessed as cell viability at 10 uM after 24 hrs under hypoxic conditions by MTT assay; assay type: functional; conditions: SK-OV-3, 24 h, read-out: Activity
[25] = as §1; assay type: functional; conditions: SK-OV-3, 24 h, read-out: Activity
[26] = as §2; assay type: functional; conditions: SK-OV-3, 24 h, read-out: Activity
[27] = HT-29, 24 h, read-out: Activity
[28] = MDA-MB-231, 24 h, read-out: Activity

With `NS(=O)(=O)c1nnc(NS(=O)(=O)c2ccc(NC(=O)CCC(=O)NCCOCCOCCOCCOCCOCCOCCOCCOCCOCCOCCOCCOCCOCCOCCOCCOCCOCCOCCOCCOCCOCCOCCOCCOCCOCCOCCOCCOCCOCCOCCOCCOCCOCCOCCOCCOCCOCCOCCOCCOCCOCCOCCOCCOCCOCCNC(=O)CCC(=O)Nc3ccc(S(=O)(=O)Nc4nnc(S(N)(=O)=O)s4)cc3)cc2)s1` as the compound, how does the Ki (Carbonic anhydrase 9) read?
The Ki was 1.7 nM.

Which Ki (Carbonic anhydrase 9) does the source give for `NS(=O)(=O)c1ccc(NC(=O)CCC(=O)NCCOCCOCCOCCOCCOCCOCCOCCOCCOCCOCCOCCOCCOCCOCCOCCOCCOCCOCCOCCOCCOCCOCCOCCOCCOCCOCCOCCOCCOCCOCCOCCOCCOCCOCCOCCOCCOCCOCCOCCOCCOCCOCCOCCOCCOCCNC(=O)CCC(=O)Nc2ccc(S(N)(=O)=O)cc2)cc1` here?
Its Ki is 4.8 nM.

With `NS(=O)(=O)c1ccc(NC(=O)CCC(=O)NCCOCCOCCNC(=O)CCC(=O)Nc2ccc(S(N)(=O)=O)cc2)cc1` as the compound, how does the Ki (Carbonic anhydrase 9) read?
Its Ki is 2.9 nM.

What about the Activity (HT-29 [1]) of the same compound?
The Activity was “Active”.

What about the Activity (HT-29 [2]) of the same compound?
The Activity was “Active”.

And the Activity (MDA-MB-231 [3])?
Its Activity is “inactive”.

What about the Activity (MDA-MB-231 [4]) of the same compound?
The Activity was “inactive”.

And the Activity (SK-OV-3 [5])?
Its Activity is “Active”.

And the Activity (SK-OV-3 [6])?
The Activity was “Active”.

With `NS(=O)(=O)c1nnc(NC(=O)CCC(=O)NCCOCCOCCNC(=O)CCC(=O)Nc2nnc(S(N)(=O)=O)s2)s1` as the compound, how does the Ki (Carbonic anhydrase 9) read?
The Ki was 9.6 nM.

Which Ki (Carbonic anhydrase 9) does the source give for `NS(=O)(=O)c1nnc(NC(=O)CCC(=O)NCCOCCOCCOCCOCCOCCOCCOCCOCCOCCOCCOCCOCCOCCOCCOCCOCCOCCOCCOCCOCCOCCOCCOCCOCCOCCOCCOCCOCCOCCOCCOCCOCCOCCOCCOCCOCCOCCOCCOCCOCCOCCOCCOCCOCCOCCNC(=O)CCC(=O)Nc2nnc(S(N)(=O)=O)s2)s1` here?
Its Ki is 2.5 nM.

What about the viability at 1000 µM (HT-29 [7]) of the same compound?
The viability at 1000 µM was 30%.

What about the viability at 1000 µM (HT-29 [8]) of the same compound?
Its viability at 1000 µM is 30%.

What about the viability at 1000 µM (MDA-MB-231 [9]) of the same compound?
Its viability at 1000 µM is 30%.

And the viability at 1000 µM (MDA-MB-231 [10])?
Its viability at 1000 µM is 30%.

And the viability at 1000 µM [11]?
The viability at 1000 µM was 30%.

What about the viability at 1000 µM [12] of the same compound?
The viability at 1000 µM was 30%.

And the viability at 100 µM (HT-29 [13])?
The viability at 100 µM was 50%.

And the viability at 100 µM (HT-29 [14])?
Its viability at 100 µM is 50%.

What about the viability at 100 µM (MDA-MB-231 [15]) of the same compound?
Its viability at 100 µM is 50%.

And the viability at 100 µM (MDA-MB-231 [16])?
The viability at 100 µM was 50%.

And the viability at 100 µM [17]?
The viability at 100 µM was 50%.

And the viability at 100 µM [18]?
The viability at 100 µM was 50%.

And the viability at 10 µM (HT-29 [19])?
The viability at 10 µM was 60%.

What about the viability at 10 µM (HT-29 [20]) of the same compound?
Its viability at 10 µM is 60%.

What about the viability at 10 µM (MDA-MB-231 [21]) of the same compound?
Its viability at 10 µM is 60%.

And the viability at 10 µM (MDA-MB-231 [22])?
The viability at 10 µM was 60%.

And the viability at 10 µM [23]?
The viability at 10 µM was 60%.

And the viability at 10 µM [24]?
The viability at 10 µM was 60%.

And the viability at 1000 µM (HT-29 [1]; [27])?
The viability at 1000 µM was 60%.

What about the viability at 100 µM (HT-29 [2]; [27]) of the same compound?
Its viability at 100 µM is 70%.

What about the viability at 1000 µM (MDA-MB-231 [3]; [28]) of the same compound?
The viability at 1000 µM was 80%.

And the viability at 100 µM (MDA-MB-231 [4]; [28])?
Its viability at 100 µM is 90%.

And the viability at 1000 µM [25]?
The viability at 1000 µM was 50%.

What about the viability at 100 µM [26] of the same compound?
Its viability at 100 µM is 80%.

For `NS(=O)(=O)c1nnc(NS(=O)(=O)c2ccc(NC(=O)CCC(=O)NCCOCCOCCNC(=O)CCC(=O)Nc3ccc(S(=O)(=O)Nc4nnc(S(N)(=O)=O)s4)cc3)cc2)s1`, which Ki (Carbonic anhydrase 9) is on record?
The Ki was 24.1 nM.

What about the Activity (HT-29 [1]) of the same compound?
The Activity was “Active”.

And the Activity (HT-29 [2])?
The Activity was “Active”.

And the Activity (MDA-MB-231 [3])?
The Activity was “inactive”.

What about the Activity (MDA-MB-231 [4]) of the same compound?
Its Activity is “inactive”.

What about the Activity (SK-OV-3 [5]) of the same compound?
Its Activity is “Active”.

And the Activity (SK-OV-3 [6])?
Its Activity is “Active”.

Which results are given for `NS(=O)(=O)c1nnc(NS(=O)(=O)c2ccc(NC(=O)CCC(=O)O)cc2)s1`?
Activity (HT-29 [1]): Active; Activity (HT-29 [2]): Active; Activity (MDA-MB-231 [3]): inactive; Activity (MDA-MB-231 [4]): inactive; Activity (SK-OV-3 [5]): Active; Activity (SK-OV-3 [6]): Active

For `NS(=O)(=O)c1nnc(NC(=O)CCC(=O)O)s1`, which Activity (HT-29 [1]) is on record?
The Activity was “Active”.

What about the Activity (HT-29 [2]) of the same compound?
The Activity was “Active”.

What about the Activity (MDA-MB-231 [3]) of the same compound?
Its Activity is “inactive”.

What about the Activity (MDA-MB-231 [4]) of the same compound?
Its Activity is “inactive”.

What about the Activity (SK-OV-3 [5]) of the same compound?
Its Activity is “Active”.

And the Activity (SK-OV-3 [6])?
The Activity was “Active”.
